Where no end group is shown, it is not given here.
Test system: EGFR
Assay: EGFR expression by immunoblotting in Hey cells
Format: cell-based
Method: Immunoblotting. Hey cells were plated into 6-well plates (5×10^5/well) and allowed to adhere overnight at 37° C., 5% CO2. The cells were lysed with 100 μL of lysis buffer (50 mM Tris-HCl, pH 7.5, 150 mM NaCl, 2 mM EDTA (Fisher), 2 mM EGTA (Fisher), 1 mM sodium orthovanadate, 2.5 mM sodium pyrophosphate, 1 mM β-gycerolphosphate, 1 mM phenylmethanesulfonyl fluoride, 10 μg/mL aprotinin, 10 μg/mL leupeptin, 1% Triton X-100, and 5% glycerol), and the cell lysates sonicated four times for five seconds each. The lysates were cleared by centrifugation at 11,000×g rcf for […] at 4° C. Cell lysates were prepared for analysis by the addition of an equal volume of Laemmli 2× sample buffer. The samples were heated to 95° C. for […] to denature the proteins. The proteins were separated on a 10% SDS-PAGE gel and transferred onto nitrocellulose. The blots were blocked with either 5% nonfat dry milk (NFDM) or 5% bovine serum albumin (BSA) in 10 mM Tris-buffered saline, pH 7.5 plus 1% Tween 20 (TBST, BioRad) for 1 hour at room temperature. The blots were probed with anti-EGFR antibody (Cell Signaling, Danvers, Mass.; cat. no. 4405) or with a β-actin antibody (Millipore, Billerica, Mass.; Mab1501) diluted in 5% NFDM or 5% BSA overnight, with shaking at 4° C. For EphA2 detection, the blots were probed with an anti-EphA2 polyclonal antibody (Santa Cruz Biotechnology, Santa Cruz, Calif.; sc-294). The blots were washed three times with TBST and probed with goat anti-rabbit IgG (Santa Cruz, sc-2004) or with goat anti-mouse IgG (Santa Cruz, sc-2005) linked to horseradish peroxidase (HRP). Bands were visualized on film (Pierce) using the ECL reagent, SuperSignal West Pico™ (Pierce).
As described above, we chose siRNA targeting EGFR; knockdown of this receptor is non-lethal, but has clinical relevance in the treatment of drug resistant ovarian carcinomas. To determine if we could effectively knockdown EGFR in vitro, EGFR siRNA was encapsulated at a concentration of 16.6 μg of EGFR siRNA/mg of nanogels, using the loading technique described above. […]

“YSA-conjugated nanogels: core/shell pNIPMAm nanogels with YSA peptide coupled to shell amines via maleimide (EMCA) (YSAYPDSVPMMSC; also: coupled to nanogel shell amines via maleimide (EMCA))” was tested, and the “EGFR expression relative to controls” value (Example 1, 4 h incubation, harvested at 48 hours, 1 mg nanogels/5×10^5 cells) was “small, statistically insignificant decrease” and the “EGFR expression of control treatments compared to untreated cells” value (Example 2) was “slight decrease”.

Source: US8361510B2, “Nanogels for cellular delivery of therapeutics” (Georgia Tech Research Corporation, priority 2008, dated 2013)
